Experimental data from US20200038416A1, “METHODS OF TREATING CARDIAC CONDUCTION DEFECTS USING AMINOSTEROL COMPOSITIONS” (Enterin, Inc., priority 2018, published 2020).
“Also recorded” adds a separate entry of the source.

Assays:
[1] = set-up: species or system rats; settings: rat, in vivo, po
[2] = test system: patients with PD; assay: Sleep diary: total sleep time and REM-behavior disorder; format: in vivo, human
Description: FIG. 3 is a chart of total sleep time in relation to squalamine dose. Total sleep time was obtained from the sleep diary by subtracting awake time during the night from total time spent in bed. Total sleep time per night was logged for each patient at baseline, each dosing period and at washout, and the means were determined. The light grey bar represents the baseline value for each cohort at a given dose level and the dark grey bar represents the value for the same cohort at the stated dose of squalamine (ENT-01; Kenterin™). The number of patients represented at each value are: Baseline, 33; 75 mg, 21; 100 mg, 28; 125 mg, 18; 150 mg, 15; 175 mg, 12; 200 mg, 7; 225 mg, 3; 250 mg, 2; washout, 33. P values were as follows: 75 mg, p=0.4; 100 mg, p=0.1; 125 mg, p=0.3; 150 mg, p=0.07; 175 mg, p=0.03; 200 mg, p=0.3; 225 mg, p=0.5; 250 mg, p=0.3; wash-out, p=0.04 (paired t test).
(5) Sleep Diary (participants completed a sleep diary on a daily basis throughout the study. The diaries included time into bed and estimated time to sleep as well as wake time and duration during the night.); […]

[3] = test system: patients with PD; assay: Circadian rhythm of wrist skin temperature; format: in vivo, human; settings: 12 evaluable patients; for markers of circadian function (IS, RA, CFI, IV) of wrist skin temperature: fixed dose versus baseline
Description: (6) I-Button Temperature Assessment. The I-Button is a small, rugged self-sufficient system that measures temperature and records the results in a protected memory section. The Thermochron I-Button DS1921H (Maxim Integrated, Dallas, Tex.) was used for skin temperature measurement. I-Buttons were programmed to sample every 10 mins., and attached to a double-sided cotton sport wrist band using Velcro, with the sensor face of the I-Button placed over the inside of the wrist, on the radial artery of the dominant hand. Subjects removed and replaced the data logger when necessary (i.e., to have a bath or shower). The value of skin temperature assessment in sleep research is that the endogenous skin warming resulting from increased skin blood flow is functionally linked to sleep propensity. From the collected data, the mesor, amplitude, acrophase (time of peak temperature), Rayleight test (an index of interdaily stability), mean waveforms are calculated.);
Assessments were made at baseline and at the end of the fixed dose and washout periods. Circadian system status was evaluated by continuously monitoring wrist skin temperature (Thermochron iButton DS1921H; Maxim, Dallas) following published procedures (Sarabia et al. 2008).
Circadian rhythm of skin temperature was evaluable in 12 patients (i.e., those who had recordings that extended from baseline through washout). Circadian system functionality was evaluated by continuously monitoring wrist skin temperature using a temperature sensor (Thermochron iButton DS1921H; Maxim, Dallas, Tex.) (Sarabia et al. 2008). […]
Briefly, this analysis includes the following parameters: (i) the inter-daily stability (the constancy of 24-hour rhythmic pattern over days, IS); (ii) intra-daily variability (rhythm fragmentation, IV); (iii) average of 10-minute intervals for the 10 hours with the minimum temperature (L10); (iv) average of 10-minute intervals for the 5 hours with the maximum temperature (M5) and the relative amplitude (RA), which was determined by the difference between M5 and L10, divided by the sum of both. […]

[4] = biological target: αS (Homo sapiens, UniProt P37840); settings: in vitro; cited from earlier work

## CC(C)[C@@H](CC[C@@H](C)[C@H]1CC[C@H]2[C@@H]3[C@H](O)C[C@H]4C[C@@H](NCCCNCCCCN)CC[C@]4(C)[C@H]3CC[C@]12C)OS(=O)(=O)O (single isomer, unassigned) [squalamine (ENT-01), squalamine]
[1]
  absorption from the intestine: low
[2]; dose escalation, Stage 2
  RBD and total sleep time: improved progressively in a dose-dependent manner
[2]; doses beyond 125 mg
  total sleep time versus baseline by dose: consistently higher than baseline beyond 125 mg
[3]
  markers of circadian function (IS, RA, CFI, IV) of wrist skin temperature: improved all markers of healthy circadian function
[3]; listed as ENT-01
  markers of circadian function (IS, RA, CFI, IV) of wrist skin temperature: significant positive impact; also recorded: improved all markers of healthy circadian function
[3]; wash-out versus baseline (IS, CFI)
  circadian parameters during wash-out period: improvement persisted for several of these circadian parameters
[4]
  displacement of αS from membranes: can displace αS from membranes in vitro
